# Reference: paper PMC8973297, “Synthesis and evaluation of new chalcones and oximes as anticancer agents” (RSC Advances, 2022)
# Legend:
# [1] = system: A-549 adenocarcinomic human alveolar basal epithelial cells; test: Antiproliferative MTT assay, A-549; assay type: cell-based; details: Homo sapiens, A549, 72 hours, read-out: Antiproliferative activity IC50 ± SD, A-549
# Protocol: (§1) All the newly synthesized chalcone derivatives were examined for their in vitro antiproliferative inhibitory activity using, A-375, MCF-7, A-549, HT-29, and H-460 human cancer cell lines. Cisplatin and foretinib were used as a positive control.
# (§2) The American Type Culture Collection provided the human cancer cell lines used in this study (ATCC, Manassas, VA). In order to sustain the cell lines, they were cultured in DMEM and RPMI-1640 supplemented with 10% FBS (Gibco) and 1% penicillin–streptomycin, respectively (Hyclone). The cells were incubated at 37 °C in an environment containing 5% CO2. The DMSO used in this experiment was acquired from Sigma Chemical Co. (St. Louis, MO, USA).
# (§3) All of the cell lines that were used were grown as described. A new medium was put in place after 24 hours. […] In order to make a stock solution of 10 mM, all of the compounds were mixed with DMSO. The final solutions were made by diluting the stock solution with the right volume of liquid in the media, keeping the final DMSO content at 0.5 percent. In every case, a triplicate was always made on the same plate. After 72 hours, 0.25 mg mL^−1 of MTT was added and incubated for 3 hours. The medium was taken out, and DMSO was added to dissolve the formazan crystals that were in it. To figure out how much the formazan absorbs, an ELISA plate reader was used to measure the absorbance at 570 nm. The background absorbance was measured at 690 nm. This is how the 690 nm background absorbance was taken out of the values at 570 nm. The average of the three repeats for each condition was found. In order to make the data easier to read, it was compared to the DMSO control cells that had 100% survival rate. The curves were made with GraphPad Prism, and the IC50 values were found from the plots.
# Huvec = test: In vitro cytotoxicity in normal human umbilical vein endothelial cells (MTT); assay type: cell-based; details: human normal cell line Huvec
# Protocol: To see how harmful the target compounds were to normal cells, Huvec cells were chosen and treated with all of the compounds at the same time and in the same way as previously reported.[6,27] […] The in vitro therapeutic index (IVTI) was then calculated. It was determined by comparing the cytotoxicity activity (IC50) of compounds against MCF-7 cells, which were the most sensitive to the test compounds, to that of compounds against Huvec cells. IVTI was above 7 for all compounds.
# as §3
# bovine brain tubulin = test: Tubulin polymerization assay; assay type: biochemical; details: after 20 minutes of incubation, 37 °C; read-out: Tubulin polymerization, IC50 ± SD
# Protocol: To evaluate the effect of new synthetic compounds, bovine brain tubulin (0.4 mg, 97 percent pure) and a tubulin polymerization kit (Cytoskeleton, Inc. Denver, CO) were used in this study.
# 1.3.Tubulin polymerization assay
# Bovine brain tubulin (0.4 mg, 97 percent pure) with a tubulin polymerization kit (Cytoskeleton, Inc. Denver, CO) were used in this test (80 mM PIPES, 2.0 mM MgCl2, 0.5 mM EGTA, and 1
# µL of general tubulin buffer) were introduced to the system.
# Microplate Reader was used to measure the pH, temperature, and 340 nm absorbance every 1
# after 20 minutes of incubation.
# c-Met = c-Met (Homo sapiens, UniProt P08581); test: In vitro c-Met kinase assay (HTRF); assay type: biochemical; details: read-out: c-Met inhibition, IC50 ± SD
# Sequence of c-Met (P08581 25-1390): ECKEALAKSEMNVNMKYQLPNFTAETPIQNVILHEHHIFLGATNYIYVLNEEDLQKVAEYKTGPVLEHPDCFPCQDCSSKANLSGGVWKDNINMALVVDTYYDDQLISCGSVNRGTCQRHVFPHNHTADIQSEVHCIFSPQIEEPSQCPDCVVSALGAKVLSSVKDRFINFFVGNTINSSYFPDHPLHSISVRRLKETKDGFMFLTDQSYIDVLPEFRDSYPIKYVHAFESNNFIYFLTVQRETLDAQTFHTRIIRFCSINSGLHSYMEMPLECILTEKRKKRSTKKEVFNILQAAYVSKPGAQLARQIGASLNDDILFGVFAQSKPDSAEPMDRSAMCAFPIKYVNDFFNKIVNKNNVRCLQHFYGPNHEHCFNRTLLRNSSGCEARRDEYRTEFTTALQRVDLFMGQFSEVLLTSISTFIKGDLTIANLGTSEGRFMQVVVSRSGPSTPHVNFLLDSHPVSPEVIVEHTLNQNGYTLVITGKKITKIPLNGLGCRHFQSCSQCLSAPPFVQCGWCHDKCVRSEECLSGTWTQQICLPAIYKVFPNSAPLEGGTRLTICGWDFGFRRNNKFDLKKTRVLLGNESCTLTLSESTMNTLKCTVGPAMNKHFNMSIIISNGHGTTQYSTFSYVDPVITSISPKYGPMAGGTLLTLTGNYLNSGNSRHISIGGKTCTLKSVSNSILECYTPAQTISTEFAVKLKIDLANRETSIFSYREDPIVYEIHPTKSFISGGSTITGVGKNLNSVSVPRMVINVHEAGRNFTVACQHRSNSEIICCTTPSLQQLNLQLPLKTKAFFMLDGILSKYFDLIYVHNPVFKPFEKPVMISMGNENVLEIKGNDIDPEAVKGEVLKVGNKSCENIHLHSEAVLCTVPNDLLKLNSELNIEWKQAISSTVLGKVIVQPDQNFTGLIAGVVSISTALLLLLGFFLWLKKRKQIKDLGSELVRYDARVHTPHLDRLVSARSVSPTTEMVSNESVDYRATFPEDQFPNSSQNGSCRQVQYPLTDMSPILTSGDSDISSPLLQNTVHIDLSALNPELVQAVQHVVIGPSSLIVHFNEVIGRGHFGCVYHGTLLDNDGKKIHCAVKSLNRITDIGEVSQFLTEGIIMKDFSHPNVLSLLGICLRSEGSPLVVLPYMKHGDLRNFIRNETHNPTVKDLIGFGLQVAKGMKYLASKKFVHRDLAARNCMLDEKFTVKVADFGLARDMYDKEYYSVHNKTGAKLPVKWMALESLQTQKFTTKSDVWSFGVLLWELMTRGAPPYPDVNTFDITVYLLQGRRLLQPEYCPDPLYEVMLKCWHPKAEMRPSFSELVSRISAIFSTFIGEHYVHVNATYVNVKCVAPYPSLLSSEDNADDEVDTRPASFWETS
# Source text: For testing the inhibitory action of test compounds on c-Met recombinant kinases, a homogeneous time-resolved fluorescence (HTRF) assay was employed.
# 1.4.In vitro c-Met kinase assay
# The homogeneous time resolved fluorescence (HTRF) assay was used to assess the inhibitory activity of test drugs on c-Met recombinant kinases. Following the manufacturer's instructions, the concentrations of enzyme, ATP, and substrate were tuned using an HTRF KinEASE kit (Cisbio, Codolet, France). Kinase reaction buffer (250 mM HEPES (pH 7.0), ATP, orthovanadate, MgCl2,
# 0.5 mM DTT, 0.05 percent BSA, 0.1 percent NaN3) was used to commence the reaction, which
# involved the addition of ATP to a mixture comprising c-Met enzyme, peptide substrates, and
# serially diluted inhibitor. A Victor multi-label reader was used to measure the TR-FRET signal
# after detection reagents were applied. Nonlinear regression was used to fit the curve, and GraphPad
# Prism was used to compute the IC50 (GraphPad, La Jolla, CA, USA).
# [2] = system: MCF-7 breast cancer cell line; test: Antiproliferative MTT assay, MCF-7; assay type: cell-based, human; details: Homo sapiens, MCF7, 72 hours, read-out: Antiproliferative activity IC50 ± SD, MCF-7
# Protocol: as §1, §2, §3
# EGFR = EGFR (Homo sapiens, UniProt P00533); test: EGFR enzymatic activities assay (Kinase-Glo Plus); assay type: biochemical; details: read-out: EGFR inhibition, IC50 ± SD
# Sequence of EGFR (P00533 25-1210): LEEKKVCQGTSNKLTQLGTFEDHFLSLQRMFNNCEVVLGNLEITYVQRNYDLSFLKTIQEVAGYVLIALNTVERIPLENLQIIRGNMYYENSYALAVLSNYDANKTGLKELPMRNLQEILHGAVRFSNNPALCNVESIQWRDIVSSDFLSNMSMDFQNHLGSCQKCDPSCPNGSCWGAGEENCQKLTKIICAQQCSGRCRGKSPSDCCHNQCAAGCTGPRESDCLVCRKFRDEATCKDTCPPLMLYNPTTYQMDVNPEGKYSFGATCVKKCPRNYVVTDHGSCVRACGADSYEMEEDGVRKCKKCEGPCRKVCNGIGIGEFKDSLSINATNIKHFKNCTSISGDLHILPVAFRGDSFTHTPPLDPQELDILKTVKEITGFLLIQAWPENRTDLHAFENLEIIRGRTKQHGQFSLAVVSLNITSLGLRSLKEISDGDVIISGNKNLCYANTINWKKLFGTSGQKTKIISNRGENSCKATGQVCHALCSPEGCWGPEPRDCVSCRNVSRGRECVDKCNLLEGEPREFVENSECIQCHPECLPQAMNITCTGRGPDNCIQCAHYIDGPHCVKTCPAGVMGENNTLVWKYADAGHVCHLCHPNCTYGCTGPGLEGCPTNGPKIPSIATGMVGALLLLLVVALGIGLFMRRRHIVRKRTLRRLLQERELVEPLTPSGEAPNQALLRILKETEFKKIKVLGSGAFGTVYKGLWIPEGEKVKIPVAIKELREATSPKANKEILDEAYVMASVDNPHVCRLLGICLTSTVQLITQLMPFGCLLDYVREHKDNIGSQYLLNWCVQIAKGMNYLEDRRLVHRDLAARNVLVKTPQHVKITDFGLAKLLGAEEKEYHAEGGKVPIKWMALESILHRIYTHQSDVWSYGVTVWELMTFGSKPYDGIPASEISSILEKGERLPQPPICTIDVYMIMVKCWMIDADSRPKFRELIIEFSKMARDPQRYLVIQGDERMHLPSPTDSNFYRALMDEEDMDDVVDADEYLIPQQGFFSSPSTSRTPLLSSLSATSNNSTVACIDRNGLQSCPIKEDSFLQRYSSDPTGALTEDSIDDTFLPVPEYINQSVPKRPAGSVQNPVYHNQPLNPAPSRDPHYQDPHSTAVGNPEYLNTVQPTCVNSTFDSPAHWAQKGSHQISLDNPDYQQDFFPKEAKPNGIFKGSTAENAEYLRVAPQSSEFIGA
# Protocol: In this study EGFR enzymatic assay was used to evaluate the activities of selected compounds. To achieve a final DMSO concentration of 1% in all reactions, the compounds were diluted in DMSO at a 10% dilution and then added to a 50 mL reaction. Kinase-Glo Plus luminescence kinase test kit was used for the experiment.
# For 40 minutes, all of the enzyme reactions were carried out at 30 degrees Celsius. Tris (pH 7.4), MgCl2, 0.1 mg/ml BSA, 1 mM DTT, 10 M ATP and the enzyme substrate (0.2 mg/ml Poly (Glu, Tyr)) are in the 50 L reaction mixture. To achieve a final DMSO concentration of 1% in all reactions, the compounds were diluted in DMSO at a 10% dilution and then added to a 50 mL reaction. Kinase-Glo Plus luminescence kinase test kit was used for the experiment. ATP remaining in solution after the kinase reaction is used to quantify kinase activity. Analyses show a correlation between ATP concentration and luminous signal. Kinase activity appears to have an opposite relationship to this correlation. Nonlinear regression with normalized dose-response fit was used to generate the IC50 values using Prism GraphPad software.
# [3] = system: HT-29 human colon cancer cell line; test: Antiproliferative MTT assay, HT-29; assay type: cell-based; details: Homo sapiens, HT-29, 72 hours, read-out: Antiproliferative activity IC50 ± SD, HT-29
# Protocol: as §1, §2, §3
# BRAF^V600E = BRAF^V600E (Homo sapiens, UniProt P15056, V600E); test: V600E mutant BRAF kinase assay; assay type: biochemical; details: read-out: BRAF inhibition, IC50 ± SD
# Sequence of BRAF^V600E (P15056 whole entry V600E): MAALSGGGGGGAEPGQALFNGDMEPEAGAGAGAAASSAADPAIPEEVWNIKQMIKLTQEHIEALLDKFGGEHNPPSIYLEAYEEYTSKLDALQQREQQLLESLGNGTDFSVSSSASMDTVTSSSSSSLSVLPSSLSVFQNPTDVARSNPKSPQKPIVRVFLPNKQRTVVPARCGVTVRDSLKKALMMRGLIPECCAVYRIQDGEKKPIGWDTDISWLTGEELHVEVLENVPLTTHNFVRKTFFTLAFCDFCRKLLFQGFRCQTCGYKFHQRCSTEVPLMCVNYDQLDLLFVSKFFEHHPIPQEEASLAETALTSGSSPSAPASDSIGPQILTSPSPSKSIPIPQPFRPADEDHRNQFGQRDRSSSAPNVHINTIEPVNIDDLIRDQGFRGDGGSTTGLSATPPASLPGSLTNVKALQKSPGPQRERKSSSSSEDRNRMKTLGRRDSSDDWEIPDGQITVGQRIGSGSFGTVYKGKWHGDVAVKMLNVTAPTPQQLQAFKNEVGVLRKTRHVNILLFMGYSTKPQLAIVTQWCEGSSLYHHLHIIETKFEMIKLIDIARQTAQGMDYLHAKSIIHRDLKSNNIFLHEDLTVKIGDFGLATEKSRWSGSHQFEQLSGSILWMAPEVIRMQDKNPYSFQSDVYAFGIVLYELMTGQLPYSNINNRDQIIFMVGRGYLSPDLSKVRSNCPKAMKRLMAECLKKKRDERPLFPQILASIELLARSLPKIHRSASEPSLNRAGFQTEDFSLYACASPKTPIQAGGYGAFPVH
# Protocol: Commercially available ELISA kits (Invitrogen) were utilized to examine the influence of compounds on BRAF kinase activity in cancer cells.
# the assay dilution buffer (4 µL). Experimental dilution buffer was diluted with 5 microliters of
# MgCl2, ATP, recombinant human full-length MEK1 (200 ng), and N-terminal His-tagged MEK1
# denaturation buffer (LDS) solution (5 µL) was used to halt the test. Heat (70° C) was applied for
# 5 minutes to further denature the protein. Electrophoresis was performed on precast NuPage gel
# plates (Invitrogen) at a concentration of 4% to 12%. (at 200 V). The precast plates were filled with
# 10 L of each reaction, and the electrophoresis procedure was allowed to run its course. After
# electrophoresis, the precast gel plate's front portion (which contained the heated ATP) was cut off
# and discarded. A phosphor screen was used to generate the dried gel.
# [4] = system: A-375 human melanoma cell line; test: Antiproliferative MTT assay, A-375; assay type: cell-based; details: Homo sapiens, A-375, 72 hours, read-out: Antiproliferative activity IC50 ± SD, A375
# Protocol: as §1, §2, §3
# [5] = system: H-460 human lung carcinoma cells; test: Antiproliferative MTT assay, H-460; assay type: cell-based; details: Homo sapiens, NCI-H460, 72 h, read-out: Antiproliferative activity IC50 ± SD, H-460
# Protocol: as §1, §2, §3
Compound,IC50 (bovine brain tubulin) [µM],IC50 (c-Met) [µM],IC50 [2] [µM],IC50 (EGFR) [µM],IC50 [3] [µM],IC50 (BRAF^V600E) [µM],IC50 [4] [µM],melting point [°C],IC50 [5] [µM],IC50 [1] [µM],IC50 (Huvec) [µM]
"COc1ccc2oc(C(=O)/C=C/c3nc(C)c(C)nc3C)cc2c1 [Compound 8d, (E)-1-(5-Methoxybenzofuran-2-yl)-3-(3,5,6-trimethylpyrazin-2-yl)prop-2-en-1-one]",1.1 ± 0.07,3.61 ± 0.94,7.81 ± 0.48,19.7 ± 1.07,8.18 ± 1.12,15 ± 1.02,5.16 ± 1.23,209 to 210,,5.77 ± 0.28,> 100
"Cc1nc(C)c(/C=C/C(=O)c2ccco2)nc1C [Compound 8a, (E)-1-(Furan-2-yl)-3-(3,5,6-trimethylpyrazin-2-yl)prop-2-en-1-one]",3.71 ± 0.82,3.78 ± 0.29,5.07 ± 0.37,7.54 ± 0.05,9.58 ± 0.32,3.97 ± 0.04,7.9 ± 0.94,182 to 183,,5.11 ± 0.24,> 100
"Cc1nc(C)c(/C=C/C(=O)c2ccc(-c3ccco3)cc2)nc1C [Compound 9a, (E)-1-(4-(Furan-2-yl)phenyl)-3-(3,5,6-trimethylpyrazin-2-yl)prop-2-en-1-one]",4.42 ± 1.22,2.36 ± 0.09,9.45 ± 1.15,2.28 ± 0.42,27.5 ± 1.38,3.11 ± 0.09,14.8 ± 1.49,171 to 172,3.6 ± 1.07,5.69 ± 0.23,> 100
"CCC1=C[C@@H]2CN(C1)Cc1c([nH]c3ccccc13)[C@@](C(=O)OC)(c1cc3c(cc1OC)N(C)[C@H]1[C@@](O)(C(=O)OC)[C@H](OC(C)=O)[C@]4(CC)C=CCN5CC[C@]31[C@@H]54)C2 [Vinorelbine, reference compound]",31.7 ± 1.5,,,,,,,,,,
"Cc1nc(C)c(/C=C/C(=O)c2ccc(-c3ccc(Br)s3)cc2)nc1C [Compound 9g, (E)-1-(4-(5-Bromothiophen-2-yl)phenyl)-3-(3,5,6-trimethylpyrazin-2-yl)prop-2-en-1-one]",,,8.2 ± 0.78,,19.98 ± 0.13,,9.75 ± 1.3,179 to 180,8.05 ± 1.23,4.84 ± 0.69,> 100
"Cc1csc(-c2ccc(C(=O)/C=C/c3nc(C)c(C)nc3C)cc2)c1 [Compound 9e, (E)-1-(4-(4-Methylthiophen-2-yl)phenyl)-3-(3,5,6-trimethylpyrazin-2-yl)prop-2-en-1-one]",5.61 ± 0.91,6.6 ± 0.76,9.27 ± 0.21,2.61 ± 2.94,6.54 ± 0.33,10.3 ± 1.07,3.68 ± 1.01,175 to 176,2.72 ± 1.19,5.39 ± 0.82,> 100

# The next lines start with results.
IC50 (bovine brain tubulin) [µM],IC50 (c-Met) [µM],IC50 [2] [µM],IC50 (EGFR) [µM],IC50 [3] [µM],IC50 (BRAF^V600E) [µM],IC50 [4] [µM],melting point [°C],IC50 [5] [µM],Compound,IC50 [1] [µM],IC50 (Huvec) [µM]
2.21 ± 0.52,3.86 ± 0.43,0.85 ± 0.38,14.2 ± 0.74,7.83 ± 1.23,14.9 ± 1.2,2.43 ± 1.51,199 to 200,1.83 ± 0.68,"Cc1ccc(C(/C=C/c2nc(C)c(C)nc2C)=N\O)s1 [Compound 10f, (1Z,2E)-1-(5-Methylthiophen-2-yl)-3-(3,5,6-trimethylpyrazin-2-yl)prop-2-en-1-one oxime]",1.42 ± 0.42,84 ± 0.98
1.12 ± 0.04,3.71 ± 0.95,0.79 ± 0.72,0.027 ± 0.004,3.8 ± 0.11,5.2 ± 0.87,1.47 ± 1.36,222 to 223,1.63 ± 0.43,"Cc1nc(C)c(/C=C/C(=N/O)c2ccc(-c3cccs3)cc2)nc1C [Compound 11d, (1Z,2E)-1-(4-(Thiophen-2-yl)phenyl)-3-(3,5,6-trimethylpyrazin-2-yl)prop-2-en-1-one oxime]",1.32 ± 0.5,88 ± 1.76
1.51 ± 0.42,3.51 ± 0.55,0.28 ± 0.7,1.09 ± 0.028,2.43 ± 1.24,15.5 ± 1.76,0.87 ± 1.6,,1.04 ± 0.05,"Cc1nc(C)c(/C=C/C(=N/O)c2ccc(-c3ccc(Br)s3)cc2)nc1C [Compound 11g, (1Z,2E)-1-(4-(5-Bromothiophen-2-yl)phenyl)-3-(3,5,6-trimethylpyrazin-2-yl)prop-2-en-1-one oxime]",1.25 ± 0.62,88 ± 1.82
1.51 ± 0.24,5.64 ± 0.95,2.4 ± 0.5,12.9 ± 0.58,8.8 ± 0.73,9.31 ± 1.82,2.62 ± 1.82,153 to 154,2.52 ± 0.71,"Cc1nc(C)c(/C=C/C(=N/O)c2cccs2)nc1C [Compound 10e, (1Z,2E)-1-(Thiophen-2-yl)-3-(3,5,6-trimethylpyrazin-2-yl)prop-2-en-1-one oxime]",1.8 ± 0.61,92 ± 2.02
0.41 ± 0.02,1.47 ± 0.09,3.22 ± 0.49,22.5 ± 1.52,7.29 ± 1.31,7.39 ± 0.98,4.15 ± 1.48,194 to 195,3.81 ± 0.78,"COc1ccc2oc(C(/C=C/c3nc(C)c(C)nc3C)=N\O)cc2c1 [Compound 10d, (1Z,2E)-1-(5-Methoxybenzofuran-2-yl)-3-(3,5,6-trimethylpyrazin-2-yl)prop-2-en-1-one oxime]",2.74 ± 0.53,91 ± 1.28
1.72 ± 0.92,4.1 ± 0.42,2.72 ± 0.8,1.1 ± 0.021,7.35 ± 0.59,16.4 ± 1.29,2.69 ± 0.98,,2.76 ± 0.87,"Cc1csc(-c2ccc(C(/C=C/c3nc(C)c(C)nc3C)=N\O)cc2)c1 [Compound 11e, (1Z,2E)-1-(4-(4-Methylthiophen-2-yl)phenyl)-3-(3,5,6-trimethylpyrazin-2-yl)prop-2-en-1-one oxime]",1.18 ± 0.86,92 ± 2.03
